According to paper PMC8066339, “Optimization of 2-Acylaminocycloalkylthiophene Derivatives for Activity against Staphylococcus aureus RnpA” (Antibiotics, 2021):
Entries after “also recorded” stand apart in the source; their conditions may differ.

Assays:
[1] = molecular target: T1, S. aureus RnpA (Staphylococcus aureus, UniProt P0A0H5); experiment: In vitro RnpA mRNA degradation assay (RNase Alert FRET substrate); format: biochemical; details: for IC50: in vitro RnpA-mediated RNA degradation, read-out: mRNA IC50; for RNA degradation inhibition in time course study: 50 µM compound, 30 min at 37 °C, Figure 2A
T1 construct: made in house; host or cells: E. coli BL21 (DE3)
T1 sequence (P0A0H5 1-117): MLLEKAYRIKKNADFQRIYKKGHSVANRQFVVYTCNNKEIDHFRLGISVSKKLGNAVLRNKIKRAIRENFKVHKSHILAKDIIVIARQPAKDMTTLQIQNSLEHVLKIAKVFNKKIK
Procedure: His-tagged RnpA was purified as previously described. E. coli BL21 (DE3) cells harboring plasmid pEXP5-nt containing a hexahistidine tag fused to the N-terminus of S.aureus RnpA coding region were grown in LB supplemented with 50 µg mL^−1 ampicillin to OD600 = 0.6 and induced with 1mM isopropyl β-D-1-thiogalactopyranoside (IPTG) for three hours to induce protein expression. […] Cells were mechanically lysed by three passes at 18,000 psi through a French Pressure Cell Press (SLM-Aminco; Pittsford, NY, USA) and cell debris was removed by centrifugation at 17,000× g for 10 min at 4 °C. Supernatants were collected, filtered through a 0.2 micron syringe filter, then loaded onto a 5 mL HisPur cobalt column (ThermoFisher Scientific, Waltham, MA, U.S.A.) using the BioRad Maximizer Duo-Flow Medium Pressure Chromatography System. Protein was eluted using an imidazole gradient (80 mM to 500 mM). Fractions were assessed for RnpA presence and purity via SDS-PAGE analysis, Coomassie staining and Western blotting using an anti-His antibody (Invitrogen; Grand Island, NY, USA).
RnpA-mediated degradation was assessed using the Rnase Alert QC System (Thermofisher Scientific). 20 pmol of His-RnpA was combined with 0.4 μM (final concentration) FRET substrate and either DMSO (negative control) or compound ≤500 µM in 1× Rnase Alert Buffer. Reactions were assembled in 96-well PCR plates (BioRad) and incubated at 37 °C for 30 min in the BioRad CFX 96 Connect Real Time instrument, measuring fluorescence every 2 min at 490 nm excitation/520 nm emission. Percent inhibition of each compound was calculated at the 30 min time-point based on the following formula: (RFU of compound treated RnpA/RFU of DMSO-treated RnpA) × 100.

[2] = test system: Human liver epithelial cells (HEP G2); experiment: MTT cytotoxicity testing; details: for HEP G2 toxicity against 70% viability cut-off (in words): concentrations lower than 50 µM
Procedure: For the scaffold to have translational significance, it must be non-toxic to human cells. Accordingly, an initial assessment of toxicity was performed using human liver epithelial (HEP G2) cells via a 3-(4,5-dimethylthiazol-2-yl)-2,5-diphenyltetrazolium bromide (MTT) assay in the presence of up to 400 µM of each analog. […] Viability of 70% was used as the cut-off criteria for toxicity (Figure 4, dashed line), according to ISO guidelines, as described in Materials and Methods.
Human liver epithelial cells (HEP G2) were cultured in Dulbecco’s Modified Eagle Medium (DMEM; Fisher Scientific, Hampton, NH) supplemented with 10% heat inactivated fetal bovine serum (FBS; Corning Life Sciences) and 1% penicillin/streptomycin (Thermofisher Scientific). Cells were incubated at 37 °C with 5% CO2 in Nunc (Roskilde, Denmark) tissue culture flasks. Cells were grown in monolayers until exceeding 70% confluency, removed with 0.25% trypsin (Fisher Scientific), resuspended in fresh medium, and used to seed approximately 2.5 × 10^5 cells/mL into each well of a 96 well tissue culture microplate (Nunc) containing 200 µL of fresh medium. Cytotoxicity testing was conducted according to the guidelines of the International Organization for Standardization (ISO) 10993-5:2009. After 24 h of incubation, the cell media was removed, and adherent cells were washed with 1× phosphate buffered saline (PBS). Cell media was supplemented with 5% per volume of compound at final concentrations from 12.5 µM to 400 µM and incubated 20–24 h at 37 °C with 5% CO2. After incubation, medium supplemented with compound was removed from the wells and replaced with 100 µL of fresh culture medium. Then, 10 µL of 12 mM (3-(4,5-dimethylthiazol-2-yl)-2,5-diphenyltetrazolium bromide (MTT) stock reagent (CyQUANT MTT cell proliferation kit; Thermofisher Scientific) was added to each well. After labeling the cells with the MTT reagent, all but 25 µL of medium was removed from the wells, and 50 µL of DMSO was added to each well and mixed thoroughly and cells were incubated at 37 °C with 5% CO2 for 10 min. After incubation, wells were mixed again and using a SPECTRAmax5 microplate reader, absorbance was read at 540 nm. Cells were treated with 125 µg/mL mitomycin C (Fisher Scientific) to serve as a positive control and 2% DMSO as a negative control. […] All compounds were tested in two independent experiments in triplicate and cell viability was expressed as a percent of the negative control.

[3] = test system: S. aureus clinical isolate USA300; experiment: Murine corneal infection (keratitis) model; format: in vivo, Staphylococcus aureus; details: BALB/c mice, 50 µM topical 5 µL every 6 h for 48 h; not statistically different (t-test)
Procedure: Corneal infections were induced by inoculating corneal scratches with S. aureus, eyes were treated with RNP0012 6 h later and every 6 h thereafter for 48 h and bacterial burden was enumerated.
In vivo efficacy studies utilizing a murine model of corneal S. aureus infection were performed as previously described. Female BALB/c mice four to six weeks of age were acquired from Charles River ([…], MA, USA) and housed according to the approved University of Rochester Medical Center Council on Animal Research (UCAR) protocol. S. aureus clinical isolate USA300 was grown overnight on both MH agar and MH broth at 37 °C. Broth cultures were centrifuged at 2000× g for 10 min at 4 °C and the pellet was resuspended in 1× sterile PBS in a volume equivalent to the starting volume. The mice were anesthetized with 100 mg kg^−1 ketamine (Par Pharmaceutica; Chestnut Ridge, NY, USA) and 10 mg kg^−1 xylazine (Akorn, Inc.; Lake Forest, IL, USA) and 0.5% proparacaine (Akorn, Inc.) was applied to the right eye of each mouse. Excess proparacaine was blotted from the ocular surface. Using a 27-gauge needle, inoculated with a single colony of S. aureus USA300, three 2 mm scratches were made across the right cornea. […] The animals were euthanized after 48 h and whole eyes were excised, homogenized, and plated to quantitate viable S. aureus colonies present. […]

SMILES | Inhibition of in vitro RnpA-mediated RNA degradation (in words) [1] | IC50 [1] [µM] | HEP G2 toxicity against 70% viability cut-off (in words) [2] | RNA degradation inhibition in time course study [1] | Therapeutic index ([2]; human) | Fold of the 50 µM cytotoxicity dose above the MIC against S. aureus ([2]; human, 50 µM) [fold] | CFU reduction in comparison to vehicle treated animals [3] [log CFU]
O=C(Nc1cccc(F)c1)c1c(NC(=O)C(F)(F)F)sc2c1CCCC2 [RNP0013] | good inhibitory properties | 50 |  |  |  |  | 
O=C(Nc1cccc(C(F)(F)F)c1)c1c(NC(=O)C(F)(F)F)sc2c1CCCC2 [RNP0016] | good inhibitory properties | 45 |  |  |  |  | 
O=C(Nc1ccc(F)cc1)c1c(NC(=O)C(F)(F)F)sc2c1CCCCC2 [RNP0009] | least effective | > 250 | did not exhibit toxicity that was beyond the 70% cut-off criteria |  |  |  | 
O=C(Nc1ccc(C(F)(F)F)cc1)c1c(NC(=O)C(F)(F)F)sc2c1CCCC2 [RNP0015] | good inhibitory properties | 43 |  |  |  |  | 
O=C(Nc1cccc(F)c1)c1c(NC(=O)C(F)(F)F)sc2c1CCCCC2 [RNP0008] | least effective | 245 | did not exhibit toxicity that was beyond the 70% cut-off criteria | varying degrees of RNA degradation inhibition |  |  | 
O=C(Nc1ccc(F)cc1)c1c(NC(=O)C(F)(F)F)sc2c1CCCC2 [RNP0014] | strongest inhibitor | 6.4 |  | varying degrees of RNA degradation inhibition |  |  | 
Cc1cccc(NC(=O)c2c(NC(=O)C(F)(F)F)sc3c2CCCCC3)c1 [RNP0010] | least effective | 224 | did not exhibit toxicity that was beyond the 70% cut-off criteria |  |  |  | 
O=C(Nc1cccc(C(F)(F)F)c1)c1c(NC(=O)C(F)(F)F)sc2c1CCCCC2 [RNP0011] | good inhibitory properties | 59 |  |  |  |  | 
O=C(Nc1cccc(Cl)c1)c1c(NC(=O)C(F)(F)F)sc2c1CCCCC2 [RNP0007] | least effective; also recorded: weakly inhibited | 175 |  | varying degrees of RNA degradation inhibition |  |  | 
O=C(Nc1ccc(C(F)(F)F)cc1)c1c(NC(=O)C(F)(F)F)sc2c1CCCCC2 [RNP0012] | good inhibitory properties | 68 |  | varying degrees of RNA degradation inhibition | ~ 260 | 263 | 1.2
